Biological target: T1, Aβ1-42 (Homo sapiens, UniProt P05067)
T1 construct: containing 0.2 µM FITC-Aβ(1-42) and 0.8 µM Aβ(1-42)
Assay: FRET assay of Aβ1-42 oligomer (ADDL) assembly inhibition
Format: biochemical
Conditions: for IC50: assay of Example 1, 0.2 µM FITC-Aβ(1-42) and 0.8 µM Aβ(1-42), 37°C, six concentrations from about 30 µM to about 0.05 µM
Text: Fluorescence (or Förster) Resonance Energy Transfer (FRET) is a distance-dependent, non-radiative transfer of energy in which the de-excitation of one fluorophore (donor) is coupled to excitation of another fluorophore (acceptor). FRET occurs if (1) the quantum of energy emitted by a donor fluorophore corresponds to an acceptor fluorophore's excitation energy, (2) the orientations of donor and acceptor transition dipoles are nearly parallel and (3) the donor fluorescent emission spectrum overlaps the acceptor absorption spectrum. In this assay, assembly of Aβ1-42 oligomer formation is monitored by FRET using N-terminal conjugates of fluorescein-Aβ1-42 as both the donor and acceptor fluorophore (fluorescein-fluorescein Ro~ 45 Ǻ). Aβ1-42 monomers assembling into oligomeric species results in a decrease of fluorescence as the fluorescein labeled Aβ1-42 peptides become proximal to each other and FRET efficiency increases. Inhibition of Aβ1-42 assembly is observed as the absence or attenuation of fluorescein quenching. FRET and FP assays are performed in 384-well Coming Non-Binding Surface, black, opaque microtiter plates, and the assay buffer consists of 50 mM MOPS-Tris (pH 8.0) with 100 mM MgCl2. The assay volume, containing 0.2 µM FITC-Aβ(1-42) and 0.8 µM Aβ(1-42), is 50 µl and the temperature is 37°C. ADDL assembly is monitored on a Tecan GENios Pro plate reader, exciting at a wavelength of 485 nm and detecting emission at a wavelength of 515 nm. Kinetic traces are collected by recording fluorescence intensity and polarization readings every five minutes over about a three to about a six-hour time course. […] Positive control reactions contain all buffer components in the absence of added small molecule or antibody reagents. To test for ADDL assembly inhibition, the non-peptidic compound was incubated with the peptide mixture at six concentrations from about 30 µM decreasing to about 0.05 µM.

T1 sequence (P05067 672-713 limits assumed): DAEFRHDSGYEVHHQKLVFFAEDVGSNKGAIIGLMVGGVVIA

SMILES	inhibition of Aβ1-42 oligomer assembly (Test Compound A ranging from 0.05 to 3 mM, FIG. 1)	IC50 [µM]	inhibition of Aβ1-42 monomer assembly into Aβ oligomers (standard FRET assay conditions of Example 1, comparative example, FIG 2)
CCOC(=O)c1c(NC(=O)C(=O)N/N=C/c2cccc(OC)c2O)sc2c1CCC(C)C2 (centres unmarked) [Compound 2, 2-{[1-(2-Hydroxy-3-methoxy-phenyl)-meth-(E)-ylidene-hydrazinooxalyl]-amino}-6-methyl-4,5,6,7-tetrahydro-benzo[b]thiophene-3-carboxylic acid ethyl ester]		3.5	
NCCCS(=O)(=O)O [Alzhemed, 3-amino-1-propanesulfonic acid, reference compound]			inability
COc1ccccc1NC(=O)C(=O)N/N=C(/CC(=O)c1cccs1)C(F)(F)F [Compound 1, N-(2-Methoxy-phenyl)-2-oxo-2-{N'-[3-oxo-3-thiophen-2-yl-1-trifluoromethyl-prop-(Z)-ylidene]-hydrazino}-acetamide]		3.9	

The remaining lines, values ahead:

inhibition of Aβ1-42 oligomer assembly (Test Compound A ranging from 0.05 to 3 mM, FIG. 1)	IC50 [µM]	inhibition of Aβ1-42 monomer assembly into Aβ oligomers (standard FRET assay conditions of Example 1, comparative example, FIG 2)	SMILES
dose dependent inhibition	1.1		CCOC(=O)c1c(NC(=O)C(=O)N/N=C/c2ccccc2O)sc2c1CCC(C)C2 (centres unmarked) [Compound 4, 2-{[1-(2-Hydroxyphenyl)-meth-(E)-ylidene-hydrazinooxalyl]-amino}-6-methyl-4,5,6,7-tetrahydro-benzo[b]thiophene-3-carboxylic acid ethyl ester]
	4.4		CCOC(=O)c1c(NC(=O)C(=O)N/N=C/c2c(O)ccc3ccccc23)sc2c1CCC(C)C2 (centres unmarked) [Compound 3, 2-{[1-(2-Hydroxynaphthalen-1-yl)-meth-(E)-ylidene-hydrazinooxalyl]-amino}-6-methyl-4,5,6,7-tetrahydro-benzo[b]thiophene-3-carboxylic acid ethyl ester]
	3.8		O=C(N/N=C/c1ccc2ccccc2c1O)c1ccccc1O [Compound 6]
	3.2		COc1ccccc1NC(=O)C(=O)N1N=C(CC(C)C)CC1(O)C(F)(F)F (centres unmarked) [Compound 5, 2-(5-hydroxy-3-isobutyl-5-(trifluoromethyl)-4,5-dihydro-1H-pyrazol-1-yl)-N-(2-methoxyphenyl)-2-oxoacetamide]

From EP2170322B1, “METHODS OF MODIFYING AMYLOID ß OLIGOMERS USING NON-[…] COMPOUNDS” (Acumen Pharmaceuticals, Inc., priority 2007, dated 2009)
